Numbers after ± are expanded uncertainties.
What was measured:
[1] = 101 kPa, Liquid; for speed of sound: Sing-around technique in a fixed-path interferometer
[2] = cn = amount concentration of the nth substance listed, in mol/dm3; conditions: 101 kPa, Liquid, c2 = 0; for speed of sound: Sing-around technique in a fixed-path interferometer

CC(C)CC(C)(C)C [2,2,4-trimethylpentane]
[1]
Conditions | kinematic viscosity [m2/s] | mass density [kg/m3] | speed of sound [m/s]
293.15 K | 7.33e-07 ± 1.3e-08 | 690.6 ± 6.3 | 1103.2 ± 1.3
298.15 K | 6.97e-07 ± 1.2e-08 | 686.3 ± 6.4 | 1082.2 ± 1.3
303.15 K | 6.63e-07 ± 1.2e-08 | 680.84 ± 6.5 | 1061.3 ± 1.3
313.15 K | 6.02e-07 ± 1.1e-08 | 673.37 ± 6.6 | 1020.1 ± 1.3
323.15 K | 5.49e-07 ± 1e-08 | 664.65 ± 6.7 | 979.5 ± 1.3

CC(C)CC(C)(C)C [2,2,4-trimethylpentane] + CCCCC(CC)COC(=O)CC(C(=O)OCC(CC)CCCC)S(=O)(=O)[O-].[Na+]
[2]
Conditions | kinematic viscosity [m2/s] | mass density [kg/m3] | speed of sound [m/s]
293.15 K | 7.33e-07 ± 1.3e-08 | 690.6 ± 6.3 | 1103.2 ± 1.3
298.15 K | 6.97e-07 ± 1.2e-08 | 686.3 ± 6.4 | 1082.2 ± 1.3
303.15 K | 6.63e-07 ± 1.2e-08 | 680.84 ± 6.5 | 1061.3 ± 1.3
313.15 K | 6.02e-07 ± 1.1e-08 | 673.37 ± 6.6 | 1020.1 ± 1.3
323.15 K | 5.49e-07 ± 1e-08 | 664.65 ± 6.7 | 979.5 ± 1.3

Reference: the NIST ThermoML archive (doi:10.1021/je050333h)
